According to patent publication US10710978B2, “STK4 inhibitors for treatment of hematologic malignancies” (Dana-Farber Cancer Institute, Inc., priority 2015, dated 2020):
Where two headings read alike, the source gives them in different places.

How the values were obtained:
[1] = system: ABL, ARG; test: KiNativ assay; type: binding; conditions: H929 live cell
Method: (§1) Biochemical IC50s of the compounds of the present disclosure against various kinases were measured in a KiNativ assay. Compounds were screened in duplicate at 10 μM in H929 live cell. IC50 was measured via Mass spectroscopy (MS).

[2] = biological target: MST1 (Homo sapiens (Human), UniProt Q13043); test: KiNativ assay; type: binding; conditions: H929 live cell
Chain of MST1 (Q13043 whole entry): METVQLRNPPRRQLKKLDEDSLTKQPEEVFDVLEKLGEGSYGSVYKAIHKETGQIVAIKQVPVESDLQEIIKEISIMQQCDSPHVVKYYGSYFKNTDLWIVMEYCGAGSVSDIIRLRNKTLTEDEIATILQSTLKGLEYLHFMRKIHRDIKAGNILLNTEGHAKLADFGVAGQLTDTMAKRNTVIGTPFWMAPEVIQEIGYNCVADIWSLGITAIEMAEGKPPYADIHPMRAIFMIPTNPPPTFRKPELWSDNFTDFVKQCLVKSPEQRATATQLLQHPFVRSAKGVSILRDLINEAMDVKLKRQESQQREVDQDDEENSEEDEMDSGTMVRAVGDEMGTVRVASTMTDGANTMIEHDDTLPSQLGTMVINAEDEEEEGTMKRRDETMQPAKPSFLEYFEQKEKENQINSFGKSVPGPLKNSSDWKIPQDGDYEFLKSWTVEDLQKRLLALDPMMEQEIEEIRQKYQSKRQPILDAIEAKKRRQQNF
Method: as §1

[3] = biological target: MAP3K2 (Homo sapiens (Human), UniProt Q9Y2U5); test: KiNativ assay; type: binding; conditions: H929 live cell
Method: as §1

[4] = biological target: NEK3 (Homo sapiens (Human), UniProt P51956); test: KiNativ assay; type: binding; conditions: H929 live cell
Method: as §1

[5] = biological target: NEK1 (Homo sapiens (Human), UniProt Q96PY6); test: KiNativ assay; type: binding; conditions: H929 live cell
Method: as §1

[6] = biological target: AKT1 (Homo sapiens (Human), UniProt P31749); test: KiNativ assay; type: binding; conditions: H929 live cell
Method: as §1

[7] = biological target: LATS1 (Homo sapiens (Human), UniProt O95835); test: KiNativ assay; type: binding; conditions: H929 live cell
Method: as §1

[8] = system: AMPKa1, AMPKa2; test: KiNativ assay; type: binding; conditions: H929 live cell
Method: as §1

[9] = biological target: NEK8 (Homo sapiens (Human), UniProt Q86SG6); test: KiNativ assay; type: binding; conditions: H929 live cell
Method: as §1

[10] = system: MAPKAPK2, MAPKAPK3; test: KiNativ assay; type: binding; conditions: H929 live cell
Method: as §1

[11] = biological target: LYN (Homo sapiens (Human), UniProt P07948); test: KiNativ assay; type: binding; conditions: H929 live cell
Chain of LYN (P07948 whole entry): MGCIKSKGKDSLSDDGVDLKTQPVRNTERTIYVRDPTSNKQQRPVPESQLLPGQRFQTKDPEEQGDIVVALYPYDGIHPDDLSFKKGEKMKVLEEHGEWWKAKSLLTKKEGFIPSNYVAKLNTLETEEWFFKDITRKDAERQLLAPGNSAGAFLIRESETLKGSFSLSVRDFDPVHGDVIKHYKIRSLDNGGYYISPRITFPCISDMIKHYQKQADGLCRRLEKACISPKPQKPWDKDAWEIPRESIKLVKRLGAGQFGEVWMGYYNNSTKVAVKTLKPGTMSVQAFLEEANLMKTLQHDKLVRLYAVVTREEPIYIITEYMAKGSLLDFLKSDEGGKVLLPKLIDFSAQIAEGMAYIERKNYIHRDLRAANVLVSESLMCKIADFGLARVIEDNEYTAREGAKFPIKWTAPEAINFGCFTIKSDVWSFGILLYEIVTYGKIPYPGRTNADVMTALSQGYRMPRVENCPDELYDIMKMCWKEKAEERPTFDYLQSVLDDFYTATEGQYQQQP
Method: as §1

[12] = system: CaMK2a, CaMK2b, CaMK2d, CaMK2g; test: KiNativ assay; type: binding; conditions: H929 live cell
Method: as §1

[13] = biological target: CSK (Homo sapiens (Human), UniProt P41240); test: KiNativ assay; type: binding; conditions: H929 live cell
Method: as §1

[14] = biological target: TBK1 (Homo sapiens (Human), UniProt Q9UHD2); test: KiNativ assay; type: binding; conditions: H929 live cell
Method: as §1

[15] = biological target: AurA (Homo sapiens (Human), UniProt O14965); test: KiNativ assay; type: binding; conditions: H929 live cell
Chain of AurA (O14965 whole entry): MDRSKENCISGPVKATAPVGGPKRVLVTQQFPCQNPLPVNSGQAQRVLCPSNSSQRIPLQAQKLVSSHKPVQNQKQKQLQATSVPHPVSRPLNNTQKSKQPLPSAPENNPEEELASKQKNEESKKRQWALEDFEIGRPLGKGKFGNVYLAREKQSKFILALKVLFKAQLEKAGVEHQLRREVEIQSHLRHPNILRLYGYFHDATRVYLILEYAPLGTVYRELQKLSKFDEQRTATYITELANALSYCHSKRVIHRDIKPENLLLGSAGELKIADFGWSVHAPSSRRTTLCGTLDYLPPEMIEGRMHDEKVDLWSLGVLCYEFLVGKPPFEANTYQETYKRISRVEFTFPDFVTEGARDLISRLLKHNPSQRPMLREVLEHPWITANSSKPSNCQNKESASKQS
Method: as §1

[16] = biological target: IKKa (Homo sapiens (Human), UniProt O15111); test: KiNativ assay; type: binding; conditions: H929 live cell
Method: as §1

[17] = biological target: CaMK1d (Homo sapiens (Human), UniProt Q8IU85); test: KiNativ assay; type: binding; conditions: H929 live cell
Method: as §1

[18] = biological target: PFTAIRE1 (Homo sapiens (Human), UniProt O94921); test: KiNativ assay; type: binding; conditions: H929 live cell
Chain of PFTAIRE1 (O94921 whole entry): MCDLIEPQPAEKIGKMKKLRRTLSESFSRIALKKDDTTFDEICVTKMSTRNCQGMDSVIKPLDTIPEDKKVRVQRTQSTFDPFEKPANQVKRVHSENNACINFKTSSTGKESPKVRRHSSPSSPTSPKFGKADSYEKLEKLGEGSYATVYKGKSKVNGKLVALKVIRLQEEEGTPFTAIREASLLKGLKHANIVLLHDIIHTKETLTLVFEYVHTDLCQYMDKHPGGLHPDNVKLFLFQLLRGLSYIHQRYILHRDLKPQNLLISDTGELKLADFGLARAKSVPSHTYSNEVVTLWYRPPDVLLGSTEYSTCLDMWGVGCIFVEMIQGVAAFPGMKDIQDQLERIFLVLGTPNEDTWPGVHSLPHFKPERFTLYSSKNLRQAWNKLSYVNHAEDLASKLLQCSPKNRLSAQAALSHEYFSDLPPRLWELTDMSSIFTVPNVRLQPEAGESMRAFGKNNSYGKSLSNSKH
Chain of PFTAIRE1 (Q8ND76 whole entry partner): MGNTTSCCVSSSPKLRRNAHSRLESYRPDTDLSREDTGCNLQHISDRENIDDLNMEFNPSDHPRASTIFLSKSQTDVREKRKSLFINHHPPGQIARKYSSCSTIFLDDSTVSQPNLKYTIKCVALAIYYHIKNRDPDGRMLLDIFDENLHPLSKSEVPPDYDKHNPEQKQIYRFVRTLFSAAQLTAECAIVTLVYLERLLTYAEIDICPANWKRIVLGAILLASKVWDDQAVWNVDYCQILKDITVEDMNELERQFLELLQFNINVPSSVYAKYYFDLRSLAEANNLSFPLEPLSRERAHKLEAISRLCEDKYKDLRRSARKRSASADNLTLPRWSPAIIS
Method: as §1

[19] = biological target: MST3 (Homo sapiens (Human), UniProt Q9Y6E0); test: KiNativ assay; type: binding; conditions: H929 live cell
Method: as §1

[20] = biological target: NDR2 (Homo sapiens (Human), UniProt Q9Y2H1); test: KiNativ assay; type: binding; conditions: H929 live cell
Method: as §1

[21] = biological target: MAST3 (Homo sapiens (Human), UniProt O60307); test: KiNativ assay; type: binding; conditions: H929 live cell
Method: as §1

[22] = biological target: STLK6 (Homo sapiens (Human), UniProt Q9C0K7); test: KiNativ assay; type: binding; conditions: H929 live cell
Method: as §1

[23] = biological target: PIK3CB (Homo sapiens (Human), UniProt P42338); test: KiNativ assay; type: binding; conditions: H929 live cell
Chain of PIK3CB (P42338 whole entry): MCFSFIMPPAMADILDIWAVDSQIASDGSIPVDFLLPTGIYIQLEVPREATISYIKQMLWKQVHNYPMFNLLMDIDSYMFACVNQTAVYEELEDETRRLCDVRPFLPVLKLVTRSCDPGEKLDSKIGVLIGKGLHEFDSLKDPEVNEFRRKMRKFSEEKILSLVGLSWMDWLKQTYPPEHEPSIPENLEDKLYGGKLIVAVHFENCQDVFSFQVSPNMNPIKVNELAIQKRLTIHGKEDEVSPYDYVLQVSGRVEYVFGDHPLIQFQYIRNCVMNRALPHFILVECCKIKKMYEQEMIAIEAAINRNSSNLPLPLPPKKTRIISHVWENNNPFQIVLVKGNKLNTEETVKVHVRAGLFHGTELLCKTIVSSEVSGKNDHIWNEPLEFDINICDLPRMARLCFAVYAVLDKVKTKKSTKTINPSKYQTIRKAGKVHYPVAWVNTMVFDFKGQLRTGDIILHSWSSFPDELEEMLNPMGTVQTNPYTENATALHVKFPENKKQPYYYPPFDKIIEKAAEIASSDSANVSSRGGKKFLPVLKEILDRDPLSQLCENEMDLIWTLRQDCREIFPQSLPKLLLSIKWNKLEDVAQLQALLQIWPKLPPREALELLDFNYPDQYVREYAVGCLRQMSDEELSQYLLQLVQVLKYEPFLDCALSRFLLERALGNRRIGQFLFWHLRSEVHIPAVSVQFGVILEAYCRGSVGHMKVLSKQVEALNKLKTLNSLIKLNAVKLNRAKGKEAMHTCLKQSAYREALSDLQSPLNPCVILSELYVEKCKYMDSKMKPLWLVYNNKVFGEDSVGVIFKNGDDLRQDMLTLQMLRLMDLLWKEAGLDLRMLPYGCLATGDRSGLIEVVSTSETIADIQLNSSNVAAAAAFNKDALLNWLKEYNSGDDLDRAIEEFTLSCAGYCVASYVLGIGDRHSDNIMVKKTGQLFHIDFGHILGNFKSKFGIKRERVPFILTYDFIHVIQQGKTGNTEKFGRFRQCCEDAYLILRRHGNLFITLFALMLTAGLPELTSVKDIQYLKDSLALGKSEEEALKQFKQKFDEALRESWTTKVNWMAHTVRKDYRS
Chain of PIK3CB (P27986 whole entry partner): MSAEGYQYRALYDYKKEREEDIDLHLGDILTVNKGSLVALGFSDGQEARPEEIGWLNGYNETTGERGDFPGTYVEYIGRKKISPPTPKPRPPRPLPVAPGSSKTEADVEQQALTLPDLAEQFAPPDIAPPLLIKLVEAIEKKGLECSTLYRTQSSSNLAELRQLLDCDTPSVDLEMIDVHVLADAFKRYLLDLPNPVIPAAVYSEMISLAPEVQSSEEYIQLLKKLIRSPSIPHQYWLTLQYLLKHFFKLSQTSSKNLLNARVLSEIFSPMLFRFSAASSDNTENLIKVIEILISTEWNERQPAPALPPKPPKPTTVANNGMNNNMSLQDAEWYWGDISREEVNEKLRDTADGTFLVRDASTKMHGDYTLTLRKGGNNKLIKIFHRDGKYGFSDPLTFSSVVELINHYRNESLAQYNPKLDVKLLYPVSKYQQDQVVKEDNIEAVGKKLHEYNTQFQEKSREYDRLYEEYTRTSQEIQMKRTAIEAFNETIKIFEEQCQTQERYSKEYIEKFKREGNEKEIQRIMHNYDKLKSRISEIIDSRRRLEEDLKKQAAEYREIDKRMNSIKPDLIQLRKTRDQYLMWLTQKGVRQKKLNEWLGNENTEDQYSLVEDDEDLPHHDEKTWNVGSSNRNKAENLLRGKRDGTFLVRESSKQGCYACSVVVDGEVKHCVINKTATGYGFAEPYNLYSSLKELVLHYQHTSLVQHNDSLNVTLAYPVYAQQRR
Method: as §1

[24] = biological target: TAO2 (Homo sapiens (Human), UniProt Q9UL54); test: KiNativ assay; type: binding; conditions: H929 live cell
Method: as §1

[25] = biological target: IRE1 (Homo sapiens (Human), UniProt O75460); test: KiNativ assay; type: binding; conditions: H929 live cell
Chain of IRE1 (O75460 19-977): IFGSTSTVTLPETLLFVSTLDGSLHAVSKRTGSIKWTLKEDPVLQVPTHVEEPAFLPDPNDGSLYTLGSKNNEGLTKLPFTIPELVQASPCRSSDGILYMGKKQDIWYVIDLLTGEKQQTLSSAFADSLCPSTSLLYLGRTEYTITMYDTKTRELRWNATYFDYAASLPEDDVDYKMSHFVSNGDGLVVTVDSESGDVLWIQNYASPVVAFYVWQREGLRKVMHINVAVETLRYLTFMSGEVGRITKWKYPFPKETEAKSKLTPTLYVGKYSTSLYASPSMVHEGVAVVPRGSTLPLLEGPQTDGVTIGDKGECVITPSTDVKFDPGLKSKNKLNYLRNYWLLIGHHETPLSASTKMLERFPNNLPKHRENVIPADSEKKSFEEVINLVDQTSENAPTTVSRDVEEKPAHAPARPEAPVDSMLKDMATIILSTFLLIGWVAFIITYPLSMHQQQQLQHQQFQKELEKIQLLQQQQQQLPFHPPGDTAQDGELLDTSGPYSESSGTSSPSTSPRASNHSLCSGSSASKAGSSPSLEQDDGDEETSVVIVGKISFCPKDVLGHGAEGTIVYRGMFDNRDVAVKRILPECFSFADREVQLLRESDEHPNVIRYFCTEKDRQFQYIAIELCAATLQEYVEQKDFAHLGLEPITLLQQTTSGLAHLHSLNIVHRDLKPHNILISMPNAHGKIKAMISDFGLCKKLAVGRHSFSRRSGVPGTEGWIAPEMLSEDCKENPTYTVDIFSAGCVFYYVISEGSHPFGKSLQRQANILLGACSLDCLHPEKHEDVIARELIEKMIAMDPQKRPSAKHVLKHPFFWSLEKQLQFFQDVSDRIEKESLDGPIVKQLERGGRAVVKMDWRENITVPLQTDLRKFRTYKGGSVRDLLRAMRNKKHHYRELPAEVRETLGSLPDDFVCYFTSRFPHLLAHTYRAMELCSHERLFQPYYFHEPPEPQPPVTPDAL
Method: as §1

[26] = biological target: Erk2 (Homo sapiens (Human), UniProt P28482); test: KiNativ assay; type: binding; conditions: H929 live cell
Method: as §1

[27] = system: MAP2K1, MAP2K2; test: KiNativ assay; type: binding; conditions: 10 μM, H929 live cell
Method: as §1

[28] = biological target: STK24 (MST3) (Homo sapiens (Human), UniProt Q9Y6E0); test: Z-lyte biochemical IC50 assay (Invitrogen); conditions: ATP concentration matched the Km
Summary of the method: (§2)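 FRET-based Z-lyte kinase assays run at Invitrogen, ATP at each kinase's Km; for STK4, 6.25-160 ng enzyme with 2 μM Ser/Thr 07 peptide in HEPES pH 7.5, MgCl2, EGTA, Brij-35, 1 h reaction then development reagent. 10-point 3-fold titration from 10 μM.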

[29] = biological target: STK4 (MST1) (Homo sapiens (Human), UniProt Q13043); test: Z-lyte biochemical IC50 assay (Invitrogen); conditions: ATP concentration matched the Km
Chain of STK4 (MST1) (Q13043 whole entry): as the sequence (Q13043 whole entry) above
Summary of the method: as §2

Nc1ncc(-c2cccc3ncsc23)cc1-c1ccc2c(c1)CCNC2=O [Compound I-13, 6-(2-amino-5-(benzo[d]thiazol-7-yl)pyridin-3-yl)-3,4-dihydroisoquinolin-1(2H)-one]
% inhibition (range) ([1]; 10 μM): 50-75%
inhibition (10 μM) [1]: 53.5%
inhibition at 10 µM ([2]; read-out: % inhibition (range)): 75 to 90%
inhibition at 10 µM ([2]; read-out: inhibition (10 μM)): 89%
inhibition at 10 µM ([3]; read-out: % inhibition (range)): 0%
inhibition at 10 µM ([3]; read-out: inhibition (10 μM)): -23.5%
inhibition at 10 µM ([4]; read-out: % inhibition (range)): 0%
inhibition at 10 µM ([4]; read-out: inhibition (10 μM)): 5.3%
inhibition at 10 µM ([5]; read-out: % inhibition (range)): 0%
inhibition at 10 µM ([5]; read-out: inhibition (10 μM)): 6.2%
inhibition at 10 µM ([6]; read-out: % inhibition (range)): 0%
inhibition at 10 µM ([6]; read-out: inhibition (10 μM)): 26.4%
inhibition at 10 µM ([7]; read-out: % inhibition (range)): 0%
inhibition at 10 µM ([7]; read-out: inhibition (10 μM)): 14.7%
% inhibition (range) ([8]; 10 μM): 0.0%
inhibition (10 μM) [8]: 1.8%
inhibition at 10 µM ([9]; read-out: % inhibition (range)): 0%
inhibition at 10 µM ([9]; read-out: inhibition (10 μM)): 10.6%
% inhibition (range) ([10]; 10 μM): 0.0%
inhibition (10 μM) [10]: 2.5%
inhibition at 10 µM ([11]; read-out: % inhibition (range)): 0%
inhibition at 10 µM ([11]; read-out: inhibition (10 μM)): -41.4%
% inhibition (range) ([12]; 10 μM): 0.0%
inhibition (10 μM) [12]: −4.1%
inhibition at 10 µM ([13]; read-out: % inhibition (range)): 0%
inhibition at 10 µM ([13]; read-out: inhibition (10 μM)): 4.7%
inhibition at 10 µM ([14]; read-out: % inhibition (range)): 0%
inhibition at 10 µM ([14]; read-out: inhibition (10 μM)): -23.1%
inhibition (10 μM) [15]: 14.7%
inhibition at 10 µM ([15]; read-out: % inhibition (range)): 0%
inhibition at 10 µM ([15]; read-out: inhibition (10 μM)): 17.4%
inhibition at 10 µM ([16]; read-out: % inhibition (range)): 0%
inhibition at 10 µM ([16]; read-out: inhibition (10 μM)): 2.6%
inhibition at 10 µM ([17]; read-out: % inhibition (range)): 0%
inhibition at 10 µM ([17]; read-out: inhibition (10 μM)): 16.2%
inhibition at 10 µM ([18]; read-out: % inhibition (range)): 35 to 50%
inhibition at 10 µM ([18]; read-out: inhibition (10 μM)): 49.2%
inhibition at 10 µM ([19]; read-out: % inhibition (range)): 0%
inhibition at 10 µM ([19]; read-out: inhibition (10 μM)): -1.8%
inhibition at 10 µM ([20]; read-out: % inhibition (range)): 0%
inhibition at 10 µM ([20]; read-out: inhibition (10 μM)): 4%
inhibition at 10 µM ([21]; read-out: % inhibition (range)): 0%
inhibition at 10 µM ([21]; read-out: inhibition (10 μM)): 22%
inhibition at 10 µM ([22]; read-out: % inhibition (range)): 0%
inhibition at 10 µM ([22]; read-out: inhibition (10 μM)): -10.8%
inhibition at 10 µM ([23]; read-out: % inhibition (range)): 0%
inhibition at 10 µM ([23]; read-out: inhibition (10 μM)): 23.1%
inhibition at 10 µM ([24]; read-out: % inhibition (range)): 0%
inhibition at 10 µM ([24]; read-out: inhibition (10 μM)): -19.7%
inhibition at 10 µM ([25]; read-out: % inhibition (range)): 0%
inhibition at 10 µM ([25]; read-out: inhibition (10 μM)): -17%
inhibition at 10 µM ([26]; read-out: % inhibition (range)): 50 to 75%
inhibition at 10 µM ([26]; read-out: inhibition (10 μM)): 74.6%
% inhibition (range) [27]: 0.0%
IC50 [28]: > 900 nM
IC50 [29]: < 40 nM
